Test results reported in US20050096259A1, “Neutrophil activation by immune response modifier compounds” (3M Innovative Properties Company, priority 2003, published 2005).

These compounds were tested on TLR8, TLR7 (assay: TLR agonism classification (TLR8 versus TLR7 agonist)). Conditions: classification in words; agonist of TLR8 but not TLR7 = TLR8-selective; no numeric data given.
Assay type: cell-based
Source text: The TLR agonism for a particular compound may be assessed in any suitable manner. […] The assay used to assess the agonism of a compound with respect to one TLR may be the same as, or a different than, the assay used to assess the agonism of the compound with respect to another TLR.
Similarly, a compound may be identified as not acting as a TLR7 agonist (i.e., a TLR7 non-agonist) if, when used to perform an assay designed to detect TLR7-mediated biological activity, the compound fails to elicit a threshold increase in TLR7-mediated biological activity. […] An assay may or may not be performed in conjunction with the appropriate control.
Assays employing HEK293 cells transfected with an expressible TLR structural gene may use a threshold of, for example, at least a three-fold increase in a TLR-mediated biological activity (e.g., NFKB activation) when the compound is provided at a concentration of, for example, from about 1 μM to about 30 μM for identifying a compound as an agonist of the TLR transfected into the cell. However, different thresholds and/or different concentration ranges may be suitable in certain circumstances. Also, different thresholds may be appropriate for different assays.
For `CCc1nc2c(N)nc3ccccc3c2n1CCCCNS(C)(=O)=O` [Compound 3, N-[4-(4-amino-2-ethyl-1H-imidazo[4,5-c]quinolin-1-yl)butyl]methanesulfonamide], the “TLR agonist selectivity (TLR7/TLR8) as stated for the compound” value (from here on “TLR agonist selectivity (TLR7/TLR8)”) was “TLR7-selective agonist”. `CCOCc1nc2c(N)nc3ccccc3c2n1CCNS(C)(=O)=O` [Compound 6, N-{2-[4-amino-2-(ethoxymethyl)-1H-imidazo[4,5-c]quinolin-1-yl]ethyl}methanesulfonamide] was tested, and the “TLR agonist selectivity (TLR7/TLR8)” value was “TLR8-selective agonist”. `CCOCc1nc2c(N)nc3c(c2n1CC(C)(C)O)CCCC3` [Compound 2, 4-amino-2-(ethoxymethyl)-α,α-dimethyl-6,7,8,9-tetrahydro-1H-imidazo[4,5-c]quinoline-1-ethanol] was tested, and the “TLR agonist selectivity (TLR7/TLR8)” value was “TLR7/8 agonist”. `CCCCCCCCCCCCCCCC(=O)NCCOCCn1c(CCOC)nc2c(N)nc3ccccc3c21` [Compound 5, N-(2-{2-[4-amino-2-(2-methoxyethyl)-1H-imidazo[4,5-c]quinolin-1-yl]ethoxy}ethyl)hexadecanamide] was tested, and the “TLR agonist selectivity (TLR7/TLR8)” value was “TLR8-selective agonist”. With `CC(C)Cn1cnc2c(N)nc3ccccc3c21` [Compound 4, 1-(2-methylpropyl)-1H-imidazo[4,5-c]quinolin-4-amine, reference compound] the “TLR agonist selectivity (TLR7/TLR8)” value was “TLR7-selective agonist”.
